Results published in patent US20060148903A1, “Capsaicinoid gel formulation and uses thereof” (AlgoRx Pharmaceuticals, Inc., priority 2004, published 2006).
Values after ≈ are worked out from the molar mass of the structure shown.

Experiments:
physchem [1] = type: physicochemical; settings: 25 °C, thermodynamic from solid
Experimental: A known weight of capsaicin drug substance was weighed into a 4 ml Wheaton vial. A known volume of solvent was added and the sample placed in an ultrasonic bath for a minimum of 5 minutes. The temperature of the water bath was kept <25° C. at all times. Samples were transferred to a shaker bath at 25° C./60% RH and left for a minimum of 5 days. The samples were inspected and samples showing saturation (excess solid material remaining) removed for analysis. An additional known weight of capsaicin was added to the remaining samples and they were returned to the shaker bath. This was repeated until all samples had reached saturation.
Samples were filtered through a 0.45 μm PVDF Millipore Millex-HV hydrophilic disposable filter into a clean Wheaton vial. Sample absorbance was determined at 280 nm using 2 mm matched cuvettes. Samples were read against their equivalent solvent blank. Where necessary samples were diluted with methanol and these samples read against a methanol blank.
The concentration of each solution was determined by comparison with the absorbance of a capsaicin reference standard solution of known concentration.
Tween 80 results were very promising therefore the two materials were combined to investigate any possible synergistic effect on capsaicin solubility. […]

physchem [2] = type: physicochemical; settings: for solubility at 7 days: 2 °C; for solubility at 7 days / solubility at 4 days: thermodynamic from solid; for solubility at 4 days: 25 °C; for Indicative solubility of capsaicin, Concentration mg/ml: 4 days
Experimental: The solubility of capsaicin was determined for the following vehicles by adding an excess of capsaicin and determining the saturation solubility by UV analysis of the supernatant.
Aliquots of 5 ml of each vehicle were dispensed into vials in duplicate and excess capsaicin added equivalent to 5 mg/ml. A small magnetic stirrer bar was introduced into vials containing the gel vehicle and mixed for approximately 5 minutes to disperse the capsaicin. All vials were sonicated for a total of 20 minutes maintaining the temperature below 25° C. The vials were stirred for a further hour.
One vial from each formulation was placed at 25° C./60% RH and one vial from each formulation was placed on a shaker at 2-8° C.
Vials were removed from 25° C./60% RH after storage for 4 days. Vials stored at 2-8° C. were removed from the shaker after storage for 4 days and returned to 2-8° C. to equilibrate further before being removed after storage for a total of 7 days.
A reference solution containing capsaicin 0.06 mg/ml in methanol was prepared. Samples were centrifuged for 20 minutes at 15000 rpm. The resultant supernatant from each vial was carefully transferred to fresh vials. The supernatant from each sample was diluted 1 in 50 with methanol and analyzed by UV at 280 nm using matched quartz cuvettes versus a methanol blank.

[3] = fold more potent than capsaicin; cited from earlier work
[4] = pH 5.5, aqueous with cosolvent or surfactant or cyclodextrin, Indicative solubility of capsaicin, Concentration mg/ml
[5] = pH 7, aqueous with cosolvent or surfactant or cyclodextrin, Indicative solubility of capsaicin, Concentration mg/ml

Row | solubility (physchem [1]; aqueous with cosolvent or surfactant or cyclodextrin, increase of capsaicin solubility for each 1% increase in Tween 80) | solubility (physchem [1]; organic solvent or mixture, Capsaicin Solubility (mg/ml)) | solubility at 7 days (physchem [2]; [4]) | solubility at 7 days (physchem [2]; [5]) | solubility at 4 days (physchem [2]; aqueous with cosolvent or surfactant or cyclodextrin, solubility of capsaicin gel formulations) | solubility at 4 days (physchem [2]; [4]) | solubility at 4 days (physchem [2]; [5]) | solubility at 4 days (physchem [2]; pH 7, aqueous with cosolvent or surfactant or cyclodextrin, capsaicin solubility in isotonic gel vehicles) | Indicative solubility of capsaicin, Concentration mg/ml (physchem [2]; pH 5.5) | Indicative solubility of capsaicin, Concentration mg/ml (physchem [2]; pH 7) | capsaicin concentration in gel formulations (physchem [2]; gel formulations stored at 2-8° C.) | Compound | potency relative to capsaicin [3]
1 | ~1000 µg/mL | 160000 µg/mL | 2200 µg/mL (≈ 7.2 mM) | 2000 µg/mL (≈ 6.55 mM) | 2000 µg/mL (≈ 6.55 mM) | 2200 µg/mL (≈ 7.2 mM) | 2100 µg/mL (≈ 6.88 mM) | ~2000 µg/mL (≈ 6.55 mM) | 2.1 mg/mL | 1.9 mg/mL | 2 mg/mL | COc1cc(CNC(=O)CCCC/C=C/C(C)C)ccc1O [Capsaicin, N-(4-hydroxy-3-methoxybenzyl)-8-methylnon-trans-6-enamide] | –
2 | – | – | – | – | – | – | – | – | – | – | – | C=C(C)[C@]12C[C@@H](C)[C@@]34O[C@](Cc5ccccc5)(O[C@@H]1[C@@H]3C=C(COC(=O)Cc1ccc(O)c(OC)c1)C[C@]1(O)C(=O)C(C)=C[C@@H]41)O2 [Resiniferatoxin] | 103-104 fold
